Reference: patent US11505543B2, “4-oxo-3,4-dihydroquinazoline compounds as inhibitors of human immunodeficiency virus replication” (VIIV HEALTHCARE UK (NO.5) LIMITED, priority 2018, dated 2022)

How the values were obtained:
[1] = system: recombinant NL4-3 virus (nef section replaced with Renilla luciferase gene) in MT-2 cells; test: HIV cell culture assay (antiviral activity, luciferase readout); type: cell-based; conditions: Renilla, NL43, MT-2 cells infected for 4-5 days with recombinant NL4-3 Renilla luciferase virus, serial dilutions of compound
Protocol: HIV cell culture assay—MT-2 cells, 293T cells and the proviral DNA clone of NL4-3 virus were obtained from the NIH AIDS Research and Reference Reagent Program. MT-2 cells were propagated in RPMI 1640 media supplemented with 10% heat inactivated fetal bovine serum (FBS), 100 μg/ml penicillin G and up to 100 units/mL streptomycin. The 293T cells were propagated in DMEM media supplemented with 10% heat inactivated FBS, 100 μg/mL penicillin G and 100 μg/mL streptomycin. A recombinant NL4-3 proviral clone, in which a section of the nef gene was replaced with the Renilla luciferase gene, was used to make the reference virus used in these studies. The recombinant virus was prepared through transfection of the recombinant NL4-3 proviral clone into 293T cells using Transit-293 Transfection Reagent from Mirus Bio LLC (Madison, Wis.). Supernatent was harvested after 2-3 days and the amount of virus present was titered in MT-2 cells using luciferase enzyme activity as a marker by measuring luciferase enzyme activity. Luciferase was quantitated using the EnduRen Live Cell Substrate from Promega (Madison, Wis.). Antiviral activities of compounds toward the recombinant virus were quantified by measuring luciferase activity in MT-2 cells infected for 4-5 days with the recombinant virus in the presence of serial dilutions of the compound.
The 50% effective concentration (EC50) was calculated by using the exponential form of the median effect equation where (Fa)=1/[1+(ED50/drug conc.)^m] (Johnson VA, Byington RT. Infectivity Assay. In Techniques in HIV Research. ed. Aldovini A, Walker BD. 71-76. New York: Stockton Press. 1990). Curve fitting and analysis were performed with ActivityBase XE Runner software version 9.1.0.4 using model 203 (ID Business Solutions, LTD, Guildford, UK).

[2] = Compound cytotoxicity, XTT-based colorimetric assay; type: cell-based; conditions: human, uninfected MT2 cells, day 4, XTT
Protocol: Compound cytotoxicity and the corresponding CC50 values were determined using the same protocol as described in the antiviral assay except that uninfected cells were used. Cytotoxicity was assessed on day 4 in uninfected MT2 cells by using a XTT (2,3-bis[2-Methoxy-4-nitro-5-sulfophenyl]-2H-tetrazolium-5-carboxyanilide inner salt)-based colorimetric assay (Sigma-Aldrich, St Louis, Mo.).

Work on O=C(Cn1ccc(C2CC2)n1)N[C@@H](Cc1cc(F)cc(F)c1)c1nc2cc(-c3ccccc3F)ccc2c(=O)n1-c1ccc(Cl)c2c(NS(=O)(=O)C3CC3)nn(CC(F)F)c12 (atropisomer, axis not shown) [Example 134, (S)-N-(1-(3-(4-chloro-3-(cyclopropanesulfonamido)-1-(2,2-difluoroethyl)-1H-indazol-7-yl)-7-(2-fluorophenyl)-4-oxo-3,4-dihydroquinazolin-2-yl)-2-(3,5-difluorophenyl)ethyl)-2-(3-cyclopropyl-1H-pyrazol-1-yl)acetamide] yielded an EC50 [1] of 10 nM and a CC50 at 4 day [2] of over 1000 nM.

In the case of CC(C)c1ccn(CC(=O)N[C@@H](Cc2cc(F)cc(F)c2)c2nc3cc(-c4ccccc4F)ccc3c(=O)n2-c2ccc(Cl)c3c(NS(=O)(=O)C4CC4)nn(CC(F)F)c23)n1 (atropisomer, axis not shown) [Example 135, (S)-N-(1-(3-(4-chloro-3-(cyclopropanesulfonamido)-1-(2,2-difluoroethyl)-1H-indazol-7-yl)-7-(2-fluorophenyl)-4-oxo-3,4-dihydroquinazolin-2-yl)-2-(3,5-difluorophenyl)ethyl)-2-(3-isopropyl-1H-pyrazol-1-yl)acetamide], the EC50 [1] is reported as 13 nM and the CC50 at 4 day [2] is reported as over 1000 nM.

Work on O=C(Cn1nc(C(F)F)cc1C(F)F)N[C@@H](Cc1cc(F)cc(F)c1)c1nc2cc(-c3ccccc3F)ccc2c(=O)n1-c1ccc(Cl)c2c(NS(=O)(=O)C3CC3)nn(CC(F)F)c12 (atropisomer, axis not shown) [Example 136, (S)-2-(3,5-bis(difluoromethyl)-1H-pyrazol-1-yl)-N-(1-(3-(4-chloro-3-(cyclopropanesulfonamido)-1-(2,2-difluoroethyl)-1H-indazol-7-yl)-7-(2-fluorophenyl)-4-oxo-3,4-dihydroquinazolin-2-yl)-2-(3,5-difluorophenyl)ethyl)acetamide] yielded an EC50 [1] of 9.5 nM and a CC50 at 4 day [2] of over 1000 nM.

Cn1nc(NS(C)(=O)=O)c2c(Cl)ccc(-n3c([C@H](Cc4cc(F)cc(F)c4)NC(=O)Cn4nc(C(F)F)c5c4C(F)(F)[C@@H]4C[C@H]54)nc4cc(-c5ccccc5-c5ccccc5)ccc4c3=O)c21 (atropisomer, axis not shown; (aR)) [Example 9, N-((S)-1-(7-([1,1′-biphenyl]-2-yl)-3-(4-chloro-1-methyl-3-(methylsulfonamido)-1H-indazol-7-yl)-4-oxo-3,4-dihydroquinazolin-2-yl)-2-(3,5-difluorophenyl)ethyl)-2-((3bS,4aR)-3-(difluoromethyl)-5,5-difluoro-3b,4,4a,5-tetrahydro-1H-cyclopropa[3,4]cyclopenta[1,2-c]pyrazol-1-yl)acetamide] gave an EC50 [1] of 4.6 nM and a CC50 at 4 day [2] of over 1000 nM.

Cn1nc(NS(C)(=O)=O)c2c(Cl)ccc(-n3c([C@H](Cc4cc(F)cc(F)c4)NC(=O)Cn4nc(C(F)F)c5c4C(F)(F)[C@@H]4C[C@H]54)nc4cc(-c5ccc(Oc6ccccc6)cc5)ccc4c3=O)c21 (atropisomer, axis not shown; (aR)) [Example 14, N-((S)-1-(3-(4-chloro-1-methyl-3-(methylsulfonamido)-1H-indazol-7-yl)-4-oxo-7-(4-phenoxyphenyl)-3,4-dihydroquinazolin-2-yl)-2-(3,5-difluorophenyl)ethyl)-2-((3bS,4aR)-3-(difluoromethyl)-5,5-difluoro-3b,4,4a,5-tetrahydro-1H-cyclopropa[3,4]cyclopenta[1,2-c]pyrazol-1-yl)acetamide] showed an EC50 [1] of 9.8 nM and a CC50 at 4 day [2] of over 1000 nM.

Cn1nc(NS(C)(=O)=O)c2c(Cl)ccc(-n3c([C@H](Cc4cc(F)cc(F)c4)NC(=O)Cn4nc(C(F)F)c5c4C(F)(F)[C@@H]4C[C@H]54)nc4cc(-c5cccc(C(=O)O)c5)ccc4c3=O)c21 (atropisomer, axis not shown; (aR)) [Example 17, 3-(3-(4-chloro-1-methyl-3-(methylsulfonamido)-1H-indazol-7-yl)-2-((S)-1-(2-((3bS,4aR)-3-(difluoromethyl)-5,5-difluoro-3b,4,4a,5-tetrahydro-1H-cyclopropa[3,4]cyclopenta[1,2-c]pyrazol-1-yl)acetamido)-2-(3,5-difluorophenyl)ethyl)-4-oxo-3,4-dihydroquinazolin-7-yl)benzoic acid] gave an EC50 [1] of 9.7 nM and a CC50 at 4 day [2] of over 1000 nM.

For Cn1nc(NS(C)(=O)=O)c2c(Cl)ccc(-n3c([C@H](Cc4cc(F)cc(F)c4)NC(=O)Cn4nc(C(F)F)c5c4C(F)(F)[C@@H]4C[C@H]54)nc4cc(-c5ccc(C(C)(C)O)cc5)ccc4c3=O)c21 (atropisomer, axis not shown; (aR)) [Example 18, N-((S)-1-(3-(4-chloro-1-methyl-3-(methylsulfonamido)-1H-indazol-7-yl)-7-(4-(2-hydroxypropan-2-yl)phenyl)-4-oxo-3,4-dihydroquinazolin-2-yl)-2-(3,5-difluorophenyl)ethyl)-2-((3bS,4aR)-3-(difluoromethyl)-5,5-difluoro-3b,4,4a,5-tetrahydro-1H-cyclopropa[3,4]cyclopenta[1,2-c]pyrazol-1-yl)acetamide], the EC50 [1] was 0.34 nM and the CC50 at 4 day [2] was over 1000 nM.

Cn1nc(NS(C)(=O)=O)c2c(Cl)ccc(-n3c([C@H](Cc4cc(F)cc(F)c4)NC(=O)Cn4nc(C(F)F)c5c4C(F)(F)[C@@H]4C[C@H]54)nc4cc(-c5cnc(F)c(F)c5)ccc4c3=O)c21 (atropisomer, axis not shown; (aR)) [Example 25, N-((S)-1-(3-(4-chloro-1-methyl-3-(methylsulfonamido)-1H-indazol-7-yl)-7-(5,6-difluoropyridin-3-yl)-4-oxo-3,4-dihydroquinazolin-2-yl)-2-(3,5-difluorophenyl)ethyl)-2-((3bS,4aR)-3-(difluoromethyl)-5,5-difluoro-3b,4,4a,5-tetrahydro-1H-cyclopropa[3,4]cyclopenta[1,2-c]pyrazol-1-yl)acetamide] gave an EC50 [1] of 0.25 nM and a CC50 at 4 day [2] of over 1000 nM.

Cc1cccc(C)c1-c1ccc2c(=O)n(-c3ccc(Cl)c4c(NS(C)(=O)=O)nn(C)c34)c([C@H](Cc3cc(F)cc(F)c3)NC(=O)Cn3nc(C(F)F)c4c3C(F)(F)[C@@H]3C[C@H]43)nc2c1 (atropisomer, axis not shown; (aR)) [Example 26, N-((S)-1-(3-(4-chloro-1-methyl-3-(methylsulfonamido)-1H-indazol-7-yl)-7-(2,6-dimethylphenyl)-4-oxo-3,4-dihydroquinazolin-2-yl)-2-(3,5-difluorophenyl)ethyl)-2-((3bS,4aR)-3-(difluoromethyl)-5,5-difluoro-3b,4,4a,5-tetrahydro-1H-cyclopropa[3,4]cyclopenta[1,2-c]pyrazol-1-yl)acetamide] showed an EC50 [1] of 0.72 nM and a CC50 at 4 day [2] of over 1000 nM.

For Cn1nc(NS(C)(=O)=O)c2c(Cl)ccc(-n3c([C@H](Cc4cc(F)cc(F)c4)NC(=O)Cn4nc(C(F)F)c5c4C(F)(F)[C@@H]4C[C@H]54)nc4cc(-c5ccc6c(c5)CCCO6)ccc4c3=O)c21 (atropisomer, axis not shown; (aR)) [Example 28, N-((S)-1-(3-(4-chloro-1-methyl-3-(methylsulfonamido)-1H-indazol-7-yl)-7-(chroman-6-yl)-4-oxo-3,4-dihydroquinazolin-2-yl)-2-(3,5-difluorophenyl)ethyl)-2-((3bS,4aR)-3-(difluoromethyl)-5,5-difluoro-3b,4,4a,5-tetrahydro-1H-cyclopropa[3,4]cyclopenta[1,2-c]pyrazol-1-yl)acetamide], the EC50 [1] was 3.2 nM and the CC50 at 4 day [2] was over 1000 nM.

With Cn1nc(NS(C)(=O)=O)c2c(Cl)ccc(-n3c([C@H](Cc4cc(F)cc(F)c4)NC(=O)Cn4nc(C(F)F)c5c4C(F)(F)[C@@H]4C[C@H]54)nc4cc(-c5cccc(F)c5)ccc4c3=O)c21 (atropisomer, axis not shown; (aR)) [Example 30, N-((S)-1-(3-(4-chloro-1-methyl-3-(methylsulfonamido)-1H-indazol-7-yl)-7-(3-fluorophenyl)-4-oxo-3,4-dihydroquinazolin-2-yl)-2-(3,5-difluorophenyl)ethyl)-2-((3bS,4aR)-3-(difluoromethyl)-5,5-difluoro-3b,4,4a,5-tetrahydro-1H-cyclopropa[3,4]cyclopenta[1,2-c]pyrazol-1-yl)acetamide] the EC50 [1] was 0.88 nM and the CC50 at 4 day [2] was over 1000 nM.

For Cn1nc(NS(C)(=O)=O)c2c(Cl)ccc(-n3c([C@H](Cc4cc(F)cc(F)c4)NC(=O)Cn4nc(C(F)F)c5c4C(F)(F)[C@@H]4C[C@H]54)nc4cc(-c5cc(F)c(F)cc5F)ccc4c3=O)c21 [Example 171, N-((S)-1-(3-(4-chloro-1-methyl-3-(methylsulfonamido)-1H-indazol-7-yl)-4-oxo-7-(2,4,5-trifluorophenyl)-3,4-dihydroquinazolin-2-yl)-2-(3,5-difluorophenyl)ethyl)-2-((3bS,4aR)-3-(difluoromethyl)-5,5-difluoro-3b,4,4a,5-tetrahydro-1H-cyclopropa[3,4]cyclopenta[1,2-c]pyrazol-1-yl)acetamide], the EC50 [1] was 0.48 nM.
